# Measured values taken from PubChem BioAssay AID463199 (Broad Institute, 2010).
# Active and inactive are the calls of the source.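 How the source made its calls: active means AC50, the dose giving half-maximal effect, exceeds a fixed cutoff for a compound that rescues yeast growth under heat; inactive means the rest, inconclusive results apart.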
# System: S. cerevisiae Burl-1 ts mutant growth, BacTiter-Glo, 38.5C 24 h
# Assay: growth induction of Burl-1 ts yeast mutant, dose response, counter-screen for SUMOylation pathway inhibitor project, whole organism, S. cerevisiae, luminescence (AID 463199)
row,SMILES,AC50
1,COc1ccc(C(=O)O)cc1S(=O)(=O)NCCN(C)C,> 42 µM (inactive)
2,CCCCNC(=O)C1C2C=CC3(CN(Cc4ccc(C)cc4)C(=O)C13)O2 (centres undefined),> 42 µM (inactive)
3,Cc1ccc(C(=O)N/C(=C\c2cccs2)C(=O)NCCc2c[nH]c3ccccc23)cc1,> 42 µM (inactive)
4,Cc1ccc(C(=O)NCCCN2CCOCC2)cc1,> 42 µM (inactive)
5,CCCCc1ccc(S(=O)(=O)NNC(=S)NCc2ccco2)cc1,> 42 µM (inactive)
6,COc1ccccc1CNC(=O)[C@H](C)NC(=O)C1CCN(C(=O)[C@@H](N)CC(C)C)CC1,> 42 µM (inactive)
7,Cc1sc(NC(=O)c2ccc(F)cc2)c(CN2CCCCCC2)c1C,> 42 µM (inactive)
8,CCC(=O)Nc1nc(CC(=O)Nc2ccccc2OC)cs1,> 42 µM (inactive)
9,O=C(Cc1ccccc1)N1CCCC1c1ccccc1 (centres undefined),> 42 µM (inactive)
10,COc1cc(C(=O)NCCC2=CCCCC2)cc(OC)c1OC,> 42 µM (inactive)
11,COc1ccc(C2C3=C(CC(C)(C)CC3=O)Nc3n[nH]c(C)c32)cc1 (centres undefined),> 42 µM (inactive)
12,CC(=O)N/C(=C\c1ccccc1)C(=O)OCC(=O)c1ccccc1,> 42 µM (inactive)
13,CSc1cccc(N2C(=O)C3CCCN3C2=S)c1 (centres undefined),> 42 µM (inactive)
14,O=C(NCC1CCCO1)c1nn2c(C(F)(F)F)cc(-c3cc(Br)cs3)nc2c1Br (centres undefined),> 42 µM (inactive)
15,Cc1ccn2cc(-c3cnoc3C)nc2c1,> 42 µM (inactive)
16,CCN(CC)C(=O)C1CCCN(c2ccc([N+](=O)[O-])cc2/C=N/NC(=O)c2cccc(Br)c2)C1 (centres undefined),> 42 µM (inactive)
17,Cc1cc(C)nc(-n2nc(C)cc2NC(=O)CNCc2ccccc2)n1,> 42 µM (inactive)
18,COc1ccc(S(=O)(=O)N2CCCOC2CNC(=O)C(=O)NCCCN2CCOCC2)cc1C (centres undefined),> 42 µM (inactive)
19,CCC(C)(C)n1nnnc1C(c1cccnc1)N1CCC(Cc2ccccc2)CC1 (centres undefined),> 42 µM (inactive)
20,COc1ccc(CCNC(=O)Cn2nnc(-c3ccc(N4CCOCC4)cc3)n2)cc1OC,> 42 µM (inactive)
21,COCC(=O)Nc1c(C(=O)Nc2ccc3c(c2)OCO3)oc2ccccc12,> 42 µM (inactive)
22,CCCCn1c2nc3ccccc3nc2c2c(=O)n(CCC)cnc21,> 42 µM (inactive)
23,COc1ccc(Nc2oc(-c3cccs3)nc2C#N)cc1,> 42 µM (inactive)
24,COc1ccccc1C(=O)NC(=O)COC(=O)Cc1ccccc1[N+](=O)[O-],> 42 µM (inactive)
25,Cc1nc2sc(C(c3ccccc3)N3CCC(O)CC3)c(O)n2n1 (centres undefined),> 42 µM (inactive)

row,SMILES,AC50
1,COc1ccccc1NC(NC(=O)c1ccco1)C(=O)c1ccccc1 (centres undefined),> 42 µM (inactive)
2,COc1cccc(CN2CCN(C(=O)c3cccc4ccccc34)CC2)c1OC,> 42 µM (inactive)
3,Cc1ccc(C(=O)NCC(=O)Nc2ccc3c(c2)OCCO3)cc1,18.5 µM
4,COc1ccc(NC(=O)Cn2nnc(C(=O)Nc3ccc(F)c(Cl)c3)c2N)cc1,> 42 µM (inactive)
5,CCOC(=O)C1CC(c2ccccc2)=NNC1=O (centres undefined),> 42 µM (inactive)
6,CCOC(=O)c1cc2sc(C)cc2n1CC(=O)Nc1ccc2c(c1)OCCO2,> 42 µM (inactive)
7,Cc1ccc(NC(=O)Cn2nc(C)c3ccccc3c2=O)cc1,> 42 µM (inactive)
8,CNC(=O)Nc1cc(NC(=O)NC)cc(C(F)(F)F)c1,> 42 µM (inactive)
9,COc1ccc(-c2cc(C(=O)Nc3cc(C)ccc3O)no2)cc1,> 42 µM (inactive)
10,COc1ccc2c(c1)[C@H]1[C@H](CO2)[C@H](c2ccccc2)[C@]2(C)C(=O)Nc3ccc(C)cc3C(=O)N12,> 42 µM (inactive)
11,COc1cc2c(=O)n(CCC(=O)NCC3CCCO3)c(=O)n(CC(=O)Nc3ccccc3C)c2cc1OC (centres undefined),> 42 µM (inactive)
12,COC(=O)C1CCN(S(=O)(=O)Cc2ccccc2)CC1,> 42 µM (inactive)
13,C/C(=N\N=C(c1ccccc1)c1ccccc1)c1ccco1,> 42 µM (inactive)
14,CC(C)NC(=O)NC(=O)COC(=O)CCCSc1nc2ccccc2s1,> 42 µM (inactive)
15,Cn1c(SCC(=O)N/N=C/c2ccc([N+](=O)[O-])s2)nnc1-c1ccc(Cl)cc1,> 42 µM (inactive)
16,CNS(=O)(=O)c1cccc(C(=O)OCC(=O)Nc2ccc(OC)cc2[N+](=O)[O-])c1,> 42 µM (inactive)
17,COc1ccc(S(=O)(=O)NCC(=O)N(CC(=O)NCC2CCCO2)c2ccccc2C)cc1 (centres undefined),> 42 µM (inactive)
18,COc1cc(O)oc1C=Nc1ccc(C(=O)O)cc1,> 42 µM (inactive)
19,COc1cccc(NC(=O)Nc2cc(C(=O)NC(C)C)ccc2N2CC3CC(C2)c2cccc(=O)n2C3)c1 (centres undefined),> 42 µM (inactive)
20,CC(SC#N)C(=O)C12CC3CC(CC(C3)C1)C2 (centres undefined),> 42 µM (inactive)
21,CC(=O)Nc1ccc(S(=O)(=O)Nc2cccc(-c3ccc4nncn4n3)c2)cc1,> 42 µM (inactive)
22,CCN=C1S/C(=C/c2ccc(-c3ccc(F)cc3)o2)C(=O)N1CC,> 42 µM (inactive)
23,CC(=O)N1CC(=O)Nc2ccc(Cl)cc2C1c1ccccc1 (centres undefined),> 42 µM (inactive)
24,Cc1cccc(N2C(=O)CSC2c2cccnc2)c1 (centres undefined),> 42 µM (inactive)
25,Cc1ccc(-c2nc(-c3cccnc3)sc2CC(=O)O)cc1,> 42 µM (inactive)

row,SMILES,AC50
1,CCOC(=O)C1=C(N)c2ccccc2CC1C1CCCC1 (centres undefined),> 42 µM (inactive)
2,O=C(CCCCCn1c(=O)[nH]c2ccsc2c1=O)NCc1ccc(F)cc1,> 42 µM (inactive)
3,C=CCNC(=O)NC(=O)COC(=O)/C(C#N)=C/c1cc(C)n(CC(C)C)c1C,> 42 µM (inactive)
4,CC(C)c1cccc(OCCCCN(C)C)c1,> 42 µM (inactive)
5,COC(=O)[C@@H]1C[C@@H]2CC[C@@H](O)C[C@@H]2N1Cc1ccc(N2CCN(C)CC2)cc1,> 42 µM (inactive)
6,O=C(CCS(=O)(=O)c1ccc(Br)s1)NCc1ccccc1,> 42 µM (inactive)
7,Cc1ccc(NC(=O)C(=O)NCC2CCCN2S(=O)(=O)c2cccs2)cc1 (centres undefined),> 42 µM (inactive)
8,COc1ccc(N=Cc2c(O)n(C)c(=O)[nH]c2=O)cc1,> 42 µM (inactive)
9,N#CC1=C(N)Oc2n[nH]c(CSc3ccccc3)c2C12C(=O)Nc1ccccc12 (centres undefined),> 42 µM (inactive)
10,O=C(O)c1ccc(Cl)c(NCc2cccs2)c1,> 42 µM (inactive)
11,COc1ccc(C2SCC(=O)Nc3c2c(=O)[nH]n3C2CCCCC2)cc1 (centres undefined),> 42 µM (inactive)
12,CN(C)c1ccc(C(CNS(=O)(=O)c2ccc([N+](=O)[O-])cc2)N2CCOCC2)cc1 (centres undefined),> 42 µM (inactive)
13,Cc1cccc(NC(=S)NC(=O)/C=C/c2ccco2)c1,> 42 µM (inactive)
14,C=CCN1C(=O)/C(=C\c2ccc(C)cc2)N=C1SCC(=O)NCCC,> 42 µM (inactive)
15,CC(C)C(=O)Nc1cccc(-c2nc3ncccc3o2)c1,> 42 µM (inactive)
16,Cc1ccc(N(CC(=O)Nc2cccc(C)c2)S(=O)(=O)c2cccc3nonc23)cc1,> 21 µM (inactive)
17,COc1ccc(CCNC(=O)c2cc(-c3ccco3)on2)cc1OC,> 42 µM (inactive)
18,CCCCCC(=O)Nc1nnn(CCC)n1,> 42 µM (inactive)
19,CO/N=C/c1ccc(Oc2ccc(C)cc2)nc1,> 42 µM (inactive)
20,CCOC(=O)Cn1c(=O)n(Cc2ccco2)c(=O)c2ccc(C(=O)NCCc3ccccc3)cc21,> 42 µM (inactive)
21,O=C1Nc2ccccc2/C1=C/c1ccc([N+](=O)[O-])cc1,> 42 µM (inactive)
22,CN(Cc1ccccc1)c1ccc(S(=O)(=O)N2CCC(C(=O)O)CC2)cc1[N+](=O)[O-],> 42 µM (inactive)
23,CC1CC(c2ccccc2)NS(=O)(=O)O1 (centres undefined),> 42 µM (inactive)
24,CC(C)CCn1c(C(C)O)nc2ccccc21 (centres undefined),> 42 µM (inactive)
25,COC(=O)c1ccc(CN2CCN(C3CCCCC3)C(CCO)C2)cc1 (centres undefined),> 42 µM (inactive)

row,SMILES,AC50
1,Cc1ccc(F)cc1NS(=O)(=O)c1ccc(Cl)s1,> 42 µM (inactive)
2,Oc1c(Br)cc(Br)cc1/C=N/N1CCN(Cc2ccccc2)CC1,> 42 µM (inactive)
3,CCN1CCCC1CN(Cc1cc2ccc(C)cc2[nH]c1=O)C(=S)Nc1ccc(OC)cc1OC (centres undefined),> 42 µM (inactive)
4,O=C(c1ccccc1F)N1CCN=C1SCc1cccnc1,> 42 µM (inactive)
5,COc1ccc(-c2[nH]nc3c2C(c2ccncc2)C(C#N)=C(N)O3)cc1 (centres undefined),> 42 µM (inactive)
6,O=C(c1cnn2c(C(F)(F)F)cc(-c3ccco3)nc12)N1CCCc2ccccc21,> 42 µM (inactive)
7,COc1ccc(-c2cc(CC3(C(=O)O)CCN(C(=O)OC(C)(C)C)CC3)on2)c(OC)c1,> 42 µM (inactive)
8,CN(C)CC/C=C1/c2cc(F)ccc2Sc2ccc(Cl)cc21,> 42 µM (inactive)
9,COCCNCc1ccccc1,> 42 µM (inactive)
10,CC(C)c1ccc(-c2cc(C(=O)N3CCOCC3)c3cc(Br)ccc3n2)cc1,> 42 µM (inactive)
11,COCCN1C(=O)/C(=C/c2cc3c(cc2Br)OCO3)NC1=S,> 42 µM (inactive)
12,OC(c1ccccc1)(C1CCCCC1)C(CN1CCOCC1)c1ccccc1 (centres undefined),> 42 µM (inactive)
13,O=C(c1ccc(F)cc1)C(CN1CCOCC1)c1ccccc1 (centres undefined),> 42 µM (inactive)
14,COc1cc(C(C2=C(O)CC(C)(C)CC2=O)C2C(=O)CC(C)(C)CC2=O)cc(OC)c1OC (centres undefined),> 42 µM (inactive)
15,COc1ccccc1CNCc1cc(OC)c(OC)c(OC)c1,> 42 µM (inactive)
16,Cc1ccc(OCC(=O)NN2C(=O)c3ccccc3C2=O)c(C)c1,> 42 µM (inactive)
17,CCn1c(SC(=O)NC2CCCCC2)nnc1-c1cccs1,> 42 µM (inactive)
18,Cc1ccccc1NC(=O)COC(=O)C1C2CC3OC(=O)C1C3C2 (centres undefined),> 42 µM (inactive)
19,CCC(C)c1ccc(S(=O)(=O)N2CCN(C(=O)COc3ccc4c(C)cc(=O)oc4c3)CC2)cc1 (centres undefined),> 42 µM (inactive)
20,O=C(CSc1nnc(-c2ccc(Br)cc2)o1)Nc1cccc2ccccc12,> 42 µM (inactive)
21,Cc1ccc(C(C[N+](=O)[O-])c2c(C)[nH]n(-c3ccccc3)c2=O)cc1 (centres undefined),39.7 µM
22,CCOc1ccc(CCN2CN(C3CCCCC3)CNC2=S)cc1OCC,> 42 µM (inactive)
23,CCc1nccn1S(=O)(=O)c1cc(OC)ccc1OC,> 42 µM (inactive)
24,CCOc1ccc(C(=O)c2cccs2)cc1,> 42 µM (inactive)
